Measurements published in patent publication US20240150293A1, “SPIROCYCLOHEXANE DERIVATIVES, PHARMACEUTICAL COMPOSITIONS CONTAINING THEM AND THEIR USES AS ANTI-APOPTOTIC INHIBITORS” (LES LABORATOIRES SERVIER, priority 2021, published 2024).
Read-outs that look alike come from different tables or passages of the source.

Key:
[1] = target: Cy5-labelled Mcl1 (amino acids 171-321) C286S protein (UniProtKB Q07820) (Homo sapiens (Human), UniProt Q07820, C286S); assay: Inhibition of Mcl-1 by the fluorescence quenching assay (Example A, Method B); type: binding
Outline: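 Cy5-labelled Mcl1 171-321 C286S (1 nM) quenched by TQ5WS-labelled PUMA peptide (10, 20 or 400 nM); displacement raises fluorescence (Ex 620/Em 680 nm). Buffer 10 mM HEPES, 150 mM NaCl, 0.05% Tween 20, pH 7.4, 5% DMSO; 2 h at room temperature, 11-point curves, IC50 converted to Ki (cKi/eKi).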

[2] = tested on: H929 multiple myeloma tumor line; assay: In vitro cytotoxicity, MTT assay (Example B, Method A); type: cell-based; conditions: H929 cells, 48 hours exposure, read-out: C50
Description: The cytotoxicity studies were carried out on the H929 multiple myeloma tumor line.
The cells are distributed onto microplates and exposed to the test compounds for 48 hours. The cell viability is then quantified by a colorimetric assay, the Microculture Tetrazolium Assay (Carmichael et al, Cancer Res. 1987, 47, 939-942).
The results are expressed in C50 which means concentration corresponding to […] of effect/inhibition.

Mcl-1 protein = Mcl-1 protein (UniProtKB Q07820) (Homo sapiens (Human), UniProt Q07820); assay: Inhibition of Mcl-1 by the fluorescence polarisation assay (Example A, Method A); type: binding; conditions: fluorescence polarization assay
Outline: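 Protein (5 nM) and fluorescein-tagged peptide tracer (1 nM) incubated with 11-point compound series for 2 h at room temperature in HEPES/NaCl/Tween 20 buffer, pH 7.4, 5% DMSO. Displacement read as decrease in polarisation; IC50 fitted by 4-parameter logistic, converted to Ki (cKi or eKi).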

Cy5-labelled Mcl1 (amino acids 171-321) C286S protein, sequence (Q07820 171-321 C286S): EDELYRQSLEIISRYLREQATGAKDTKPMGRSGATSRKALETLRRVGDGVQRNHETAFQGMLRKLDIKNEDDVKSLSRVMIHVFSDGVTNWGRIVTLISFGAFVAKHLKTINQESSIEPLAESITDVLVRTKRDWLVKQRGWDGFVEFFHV
Mcl-1 protein, sequence (Q07820 whole entry): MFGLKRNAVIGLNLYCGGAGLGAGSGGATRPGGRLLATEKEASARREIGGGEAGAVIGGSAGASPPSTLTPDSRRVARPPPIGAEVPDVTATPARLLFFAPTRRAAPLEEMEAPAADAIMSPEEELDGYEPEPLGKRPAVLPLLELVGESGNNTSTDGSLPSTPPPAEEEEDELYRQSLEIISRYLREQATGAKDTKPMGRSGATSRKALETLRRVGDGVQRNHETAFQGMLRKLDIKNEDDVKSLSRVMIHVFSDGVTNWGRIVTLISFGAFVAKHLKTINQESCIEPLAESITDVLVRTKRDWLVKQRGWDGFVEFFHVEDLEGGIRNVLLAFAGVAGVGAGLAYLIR

| Compound | Ki [1] | IC50 ([2]; Homo sapiens, NCI-H929, 48 h) | IC50 [2] | inhibition at 10 µM ([1]; @ 10 μM, read-out: Mcl-1 inhibition, % at a single concentration) | Ki (Mcl-1 protein) |
| --- | --- | --- | --- | --- | --- |
| C[C@@H](COc1ccnc2c1[C@@H](CC(F)(F)F)CCC2)C[C@H]1Cc2ccccc2[C@]12CC[C@@](Nc1cccc(Cl)c1)(C(=O)O)CC2 [Example 694, (1r,2′S,4S)-4-(3-chloroanilino)-2′-[(2R)-2-methyl-3-{[(5R)-5-(2,2,2-trifluoroethyl)-5,6,7,8-tetrahydroquinolin-4-yl]oxy}propyl]-2′,3′-dihydrospiro[cyclohexane-1,1′-indene]-4-carboxylic acid] | 100 nM | 6290 nM |  |  |  |
| C[C@@H](COc1ccnc2c1CCC2O)C[C@H]1Cc2ccccc2[C@]12CC[C@@](Nc1cccc(Cl)c1)(C(=O)O)CC2 (single isomer, unassigned) [Example 609] | 2.61 nM |  | 629 nM |  |  |
| C[C@@H](COc1ccnc2c1[C@H](C)CCC2)C[C@H]1Cc2ccccc2[C@]12CC[C@@](Sc1cccc(Cl)c1)(C(=O)O)CC2 [Example 718, (1r,2′S,4S)-4-[(3-chlorophenyl)sulfanyl]-2′-[(2R)-2-methyl-3-{[(5R)-5-methyl-5,6,7,8-tetrahydroquinolin-4-yl]oxy}propyl]-2′,3′-dihydrospiro[cyclohexane-1,1′-indene]-4-carboxylic acid] |  | 15900 nM |  | 14.8% |  |
| CC(O)c1ccc2c(c1)[C@]1(CC[C@@](Nc3cccc(Cl)c3)(C(=O)O)CC1)[C@@H](C[C@@H](C)COc1ccnc3c1[C@H](C)CC[C@H]3F)C2 (single isomer, unassigned) [Example 863] | 0.382 nM |  | 76.7 nM |  |  |
| C[C@@H](COc1ccnc2c1[C@H](C)CCC2(F)F)C[C@H]1Cc2ccccc2[C@]12CC[C@@](Nc1cccc(Cl)c1)(C(=O)O)CC2 [Example 692, (1r,2′S,4S)-4-(3-chloroanilino)-2′-[(2R)-3-{[(5R)-8,8-difluoro-5-methyl-5,6,7,8-tetrahydroquinolin-4-yl]oxy}-2-methylpropyl]-2′,3′-dihydrospiro[cyclohexane-1,1′-indene]-4-carboxylic acid] | 1.75 nM | 132 nM |  |  |  |
| Cc1ccc(N[C@]2(C(=O)O)CC[C@]3(CC2)c2ccccc2C[C@@H]3C[C@@H](C)COc2ccnc3c2[C@H](C)CCC3)cc1Cl [Example 709, (1r,2′S,4S)-4-(3-chloro-4-methylanilino)-2′-[(2R)-2-methyl-3-{[(5R)-5-methyl-5,6,7,8-tetrahydroquinolin-4-yl]oxy}propyl]-2′,3′-dihydrospiro[cyclohexane-1,1′-indene]-4-carboxylic acid] | 6.4 nM | 1010 nM |  |  |  |
| CC1CCc2nccc(OC[C@H](C)CC3=Cc4ccccc4[C@]34CC[C@@](Nc3cccc(Cl)c3)(C(=O)O)CC4)c21 (single isomer, unassigned) [Example 630] | 1.17 nM |  | 340 nM |  |  |
| Cc1cc2c(OCCC[C@H]3Cc4ccccc4[C@]34CC[C@@](Nc3cccc(Cl)c3)(C(=O)O)CC4)cccc2[nH]1 [Example 482, (1r,2′S,4S)-4-(3-chloroanilino)-2′-{3-[(2-methyl-1H-indol-4-yl)oxy]propyl}-2′,3′-dihydrospiro[cyclohexane-1,1′-indene]-4-carboxylic acid] |  | 12400 nM |  |  | 317 nM |
| CNc1cccc(OC[C@H](C)C[C@H]2Cc3ccccc3[C@]23CC[C@@](Nc2cccc(Cl)c2)(C(=O)O)CC3)c1 [Example 569, (1r,2′S,4S)-4-(3-chloroanilino)-2′-{(2R)-2-methyl-3-[3-(methylamino)phenoxy]propyl}-2′,3′-dihydrospiro[cyclohexane-1,1′-indene]-4-carboxylic acid] |  | 1720 nM |  |  | 74.3 nM |
| O=C(O)[C@]1(Nc2cccc(Cl)c2)CC[C@@]2(CC1)c1ccccc1CC2CCCOc1ccnc2c1CCCC2 (stereo partly shown) [Example 451, (1r,4r)-4-(3-chloroanilino)-2′-{3-[(5,6,7,8-tetrahydroquinolin-4-yl)oxy]propyl}-2′,3′-dihydrospiro[cyclohexane-1,1′-indene]-4-carboxylic acid] |  | 3490 nM |  |  | 49.7 nM |
| O=C(O)[C@]1(Nc2cccc(Cl)c2)CC[C@@]2(CC1)c1ccccc1C[C@H]2c1cc2ccccc2o1 [Example 337, (1r,2′R,4R)-2′-(1-benzofuran-2-yl)-4-(3-chloroanilino)-2′,3′-dihydrospiro[cyclohexane-1,1′-indene]-4-carboxylic acid] |  | 30000 nM |  |  | 247 nM |
| Cc1cccc(C2Cc3ccccc3[C@]23CC[C@@](Nc2cccc(Cl)c2)(C(=O)O)CC3)c1 (single isomer, unassigned) [Example 345, (1r,4r)-4-(3-chloroanilino)-2′-(3-methylphenyl)-2′,3′-dihydrospiro[cyclohexane-1,1′-indene]-4-carboxylic acid] |  | 30000 nM |  |  | 1240 nM |
| O=C(O)[C@]1(Nc2cccc(Cl)c2)CC[C@@]2(CC1)c1ccccc1CC2CCCOc1ccncc1 (stereo partly shown) [Example 426, (1r,4r)-4-(3-chloroanilino)-2′-{3-[(pyridin-4-yl)oxy]propyl}-2′,3′-dihydrospiro[cyclohexane-1,1′-indene]-4-carboxylic acid] |  | 16500 nM |  |  | 55.3 nM |
| O=C(O)[C@]1(Nc2cccc(Br)c2)CC[C@@]2(C=Cc3c(Br)cccc32)CC1 [Example 60, (1r,4r)-4′-bromo-4-(3-bromoanilino)spiro[cyclohexane-1,1′-indene]-4-carboxylic acid] |  | 30000 nM |  |  | 276 nM |
| O=C(O)[C@]1(Nc2cccc(Cl)c2)CC[C@@]2(CC1)c1ccccc1CC2CCCOc1ccncc1C1CC1 (stereo partly shown) [Example 464, (1r,4r)-4-(3-chloroanilino)-2′-{3-[(3-cyclopropylpyridin-4-yl)oxy]propyl}-2′,3′-dihydrospiro[cyclohexane-1,1′-indene]-4-carboxylic acid] |  | 14800 nM |  |  | 49.1 nM |
| O=C(O)[C@]1(Nc2cccc(Cl)c2)CC[C@]2(CC1)C(CCOc1ccncc1F)=Cc1ccccc12 [Example 190, (1r,4r)-4-(3-chloroanilino)-2′-{2-[(3-fluoropyridin-4-yl)oxy]ethyl}spiro[cyclohexane-1,1′-indene]-4-carboxylic acid] |  | 6400 nM |  |  | 44.3 nM |
| C[C@@H](COc1ccncc1)C[C@H]1Cc2ccccc2[C@]12CC[C@@](Nc1cccc(Cl)c1)(C(=O)O)CC2 [Example 582, (1r,2′S,4S)-4-(3-chloroanilino)-2′-{(2R)-2-methyl-3-[(pyridin-4-yl)oxy]propyl}-2′,3′-dihydrospiro[cyclohexane-1,1′-indene]-4-carboxylic acid] |  | 2550 nM |  |  | 51.9 nM |
| O=C(O)[C@]1(Nc2cccc(Cl)c2)CC[C@@]2(CC1)c1ccccc1CN2CCCOc1ccccc1 [Example 35, (1s,4s)-4-(3-chloroanilino)-2′-(3-phenoxypropyl)-2′,3′-dihydrospiro[cyclohexane-1,1′-isoindole]-4-carboxylic acid] |  | 30000 nM |  |  | 332 nM |
| CNc1cc(OC[C@H](C)C[C@H]2Cc3ccccc3[C@]23CC[C@@](Nc2cccc(Cl)c2)(C(=O)O)CC3)ccn1 [Example 585, (1r,2′S,4S)-4-(3-chloroanilino)-2′-[(2R)-2-methyl-3-{[2-(methylamino)pyridin-4-yl]oxy}propyl]-2′,3′-dihydrospiro[cyclohexane-1,1′-indene]-4-carboxylic acid] |  | 2610 nM |  |  | 36 nM |
| O=C(O)[C@]1(Nc2cccc(Cl)c2)CC[C@]2(CC1)C(CCOc1ccnc(F)c1)=Cc1ccccc12 [Example 191, (1r,4r)-4-(3-chloroanilino)-2′-{2-[(2-fluoropyridin-4-yl)oxy]ethyl}spiro[cyclohexane-1,1′-indene]-4-carboxylic acid] |  | 5720 nM |  |  | 69.7 nM |
